Tests used:
[1] = test system: RTKs in cell membrane fraction MDA-MB-468; test: RTK activity of cell membrane fraction with or without inhibitor (ELISA, Biotin-poly(Glu, Tyr) substrate); type: biochemical; conditions: treatment solution containing 100 μM inhibitor, 100 μM ATP, FIG. 1
Experimental: (§1) Cultured cells (13 types: A-431, KF, MDA-MB-468, RMUG-L, BT-474, ES2, MDA-MB-453, SK-Br-3, SNG-S, K-562, MDA-MB-231, MCF7 and T47D) were respectively mixed with 1 ml of a homogenizing reagent (containing 20 mM HEPES pH7.4, 0.2% protease inhibitors (PI), 10% glycerol, 200 μM Na3VO4 and 50 mM NaF), pressurized with a pestle to break cell membrane and cell homogenate was obtained. The obtained cell homogenate was centrifuged (20,000×g, 20 min.), the supernatant was discarded and the pellet was collected. The collected pellet was added with a solubilizing solution (containing 20 mM HEPES pH7.4, 1% NP40, 0.2% PI, 10% glycerol, 200 μM Na3VO4 and 50 mM NaF), mixed, pressurized with a pestle to solubilize cell membrane and centrifuged (20,000×g, 20 min.). The supernatant was then collected as the cell membrane fraction, adjusted its total protein amount to 40 μg/ml and used for the following experiments.
(§2) The ELISA plate used was the avidin coated plate (NeutrAvidin HBC White 96-Well Plates With SuperBlock Blocking Buffer; PIERCE). Each well of the plate was washed three times with TBS-T (containing 25 mM Tris, 150 mM NaCl and 0.05% Tween-20). A substrate solution 1 (50 μl; TBS containing 1 μg/ml Biotin-poly(Glu, Tyr) substrate) was added to each well and the plate was incubated with gentle shaking at 25° C. for 1.5 hours. After the incubation, each well was washed three times with TBS-T. Thus, Biotin-poly(Glu, Tyr) substrate was bound to the surface of each well of the ELISA plate. This ELISA plate was used for the following enzyme reaction.
(§3) The cell membrane fractions (25 μl each) of the above tumor cells were placed in seven tubes, respectively. To six tubes were added 25 μl of a treatment solution (20 mM HEPES pH7.4, 20 mM MnCl2, 2 mM DTT, 1% NP40, 10% glycerol, 200 μM Na3VO4, 50 mM NaF, 100 μM ATP, 400 μM PPI (BIOMOL)) containing 100 μM PD153035, 25 μl of treatment solution containing 100 μM AG1478, 25 μl of the treatment solution containing 100 μM 4557W, 25 μl of the treatment solution containing 100 μM Src inhibitor, 25 μl of the treatment solution containing 100 μM PDGFR inhibitor and 25 μl of the treatment solution containing 100 μM VEGFR inhibitor, respectively, to contact the cell membrane fractions with RTK activity inhibitors. To the remained tube was added with 25 μl of the treatment solution without inhibitors. The thus obtained solutions are called as reaction solutions. In order to suppress the enzyme activity of RTKs, the above procedures were carried out at below 4° C.
(§4) Each reaction solution (50 μl was distributed to each well of the ELISA plate prepared as above, and the plate was incubated at 25° C. for about 30 minutes to bring the cell membrane fractions having contacted or not with RTK activity inhibitors into contact with the substrate. After the incubation, each well was added with 100 μl of a reaction termination solution (TBS-T containing 5 mM EDTA) and washed three times with TBS-T. Each well was then washed with 300 μl of StartingBlock T20 (TBS) Blocking Buffer (PIERCE). After washing, each well was added with 100 μl of HRP-labeled primary antibody (p-Tyr (PY20), sc-508 HRP (SANTA Cruz Biotechnology), an antibody recognizing a phosphorylated tyrosine residue) diluted to 1000-fold with StartingBlock T20 (TBS) Blocking Buffer, and the plate was incubated with gentle shaking at 25° C. for about 1.5 hours. After the incubation, wells were washed for five times with TBS-T. After washing, each well was added with 150 μl of chemiluminescent substrate (SuperSignal ELISA PICO (PIERCE)), and after 5 min., luminescence was measured with a microplate reader GENios (TECAN) to measure RTK activities. […]

MDA-MB-468 tumor = test: Tumor mass of MDA-MB-468 tumor in mice; type: in vivo, mice (BALB/c nu/nu); conditions: 30 mg/kg/day injected for 7 days, Days 3, 5, 8 relative to Day 1, FIG. 4
Experimental: MDA-MB-468 cells were cultured in a medium (DMEM-F12 (Sigma) containing 10% FBS (Hyclone)) until cells become 80% confluent in a 225-cm^2 flask. The obtained cultured cells were suspended in 100 μl of DMEM-F12 at about 1×10^7 cells to obtain a MDA-MB-468 cell suspension.
Fat pad of 10-week-old female mice (BALB/c nu/nu) was injected with 100 μl of the MDA-MB-468 cell suspension. After 14 days, the growth of tumor in mice was confirmed. Thus, tumor was allowed to be formed in three mice.
At 14 days after the injection of the MDA-MB-468 cell suspension, an inhibitor solution was injected to the mouse having tumor. Specifically, AG1478 was dissolved in 100 μl of dimethylsulfoxide (DMSO, Sigma) to obtain a inhibitor solution 1. The mouse was injected with the inhibitor solution 1 so that it received the inhibitor at a dose of 30 mg/kg/day. The inhibitor solution 1 was injected for consecutive 7 days. 4557W was dissolved in DMSO to obtain an inhibitor solution 2. […]
On Day 1, the mice were injected with the inhibitor solutions. On Days 1, 3, 5, and 8, the tumor mass (mm^3) in mice was measured. The tumor mass was calculated from the longitudinal and transverse diameters of the tumor measured, assuming that the shape of the tumor is an oval sphere.
The tumor mass of the mouse injected with DMSO was measured in a similar manner. […]

[2] = test system: RTKs in cell membrane fraction BT-474; test: RTK activity of cell membrane fraction with or without inhibitor (ELISA, Biotin-poly(Glu, Tyr) substrate); type: biochemical; conditions: treatment solution containing 100 μM inhibitor, 100 μM ATP, FIG. 1
Experimental: as §1, §2, §3, §4

[3] = test system: RTKs in cell membrane fraction MCF7; test: as above; type: biochemical; conditions: treatment solution containing 100 μM inhibitor, 100 μM ATP, FIG. 2
Experimental: as §1, §2, §3, §4

[4] = test system: RTKs in cell membrane fraction MDA-MB-231; test: as above; type: biochemical; conditions: treatment solution containing 100 μM inhibitor, 100 μM ATP, FIG. 2
Experimental: as §1, §2, §3, §4

BT-474 cells = test: VEGF secretion ability (Human VEGF Quantikine ELISA); type: cell-based; conditions: 1 μM inhibitor, 4 hours, FIG. 6
Experimental: (§5) The VEGF secretion ability was measured as follows. Cultured cells of MDA-MB-468, BT-474, MCF7 and MDA-MB-231 were seeded in a 6-well plate (Corning) at 1×10^6 cells/well and cultured at 37° C. in a medium (10% FBS). After 24 hours, the medium is changed to a serum free medium and the culture was continued for further 18 hours. The serum free medium used was DMEM/F12 (SIGMA) or RPMI1640 (SIGMA) supplemented with the antibiotics Antibiotic-Antimycotic (100×) (GIBCO). Thereafter, the medium was changed to the medium (10% FBS) containing 1 μM inhibitor in DMSO (PD153035, AG1478, PDGFR inhibitor or VEGFR inhibitor) and the culture was continued for additional 4 hours. The cell supernatant was then collected. The amount of VEGFs in the supernatant was measured with Human VEGF Quantikine ELISA Kit (R&D system) according to the attached protocol.
(§6) The control experiment was carried out with DMSO only instead of the inhibitor.
(§7) In FIG. 6, the y-axis corresponds to VEGF concentration (pg/ml), which reflects the amount of VEGFs secreted from the cells. In FIG. 6, “DMSO”, “PD”, “AG”, “PDGFR” and “VEGFR” represent the results of control, and the cells treated with PD153035, AG1478, PDGFR inhibitor and VEGFR inhibitor, respectively.

MDA-MB-468 cells = test: as above; type: cell-based; conditions: 1 μM inhibitor, 4 hours, FIG. 6
Experimental: as §5, §6, §7

tumor cell line (A-431) = conditions: A-431, highest expression level of HER1; Non-Patent Document 1; cited from earlier work

SMILES | RTK activity in the presence of the inhibitor (relative to control RTK activity) [1] | increase in the tumor mass (MDA-MB-468 tumor) | RTK activity in the presence of the inhibitor (relative to control RTK activity) [2] | RTK activity in the presence of the inhibitor (relative to control RTK activity) [3] | RTK activity in the presence of the inhibitor (relative to control RTK activity) [4] | VEGF secretion amount compared to the control value (BT-474 cells) | VEGF secretion amount compared to the control value (MDA-MB-468 cells) | proliferation of the tumor cell line (tumor cell line (A-431))
COc1cc2ncnc(Nc3ccc(OCc4ccccc4)cc3)c2cc1OC [4557W] | decreased | suppressed | – | – | – | – | – | –
COc1cc2ncnc(Nc3cccc(Cl)c3)c2cc1OC [AG1478] | decreased | suppressed | decreased | not decreased | not decreased | decreased | decreased | –
COc1cc2ncnc(Nc3ccc(F)c(Cl)c3)c2cc1OCCCN1CCOCC1 [Iressa, gefitinib] | – | – | – | – | – | – | – | suppressed at the highest degree
COc1cc2ncnc(Nc3cccc(Br)c3)c2cc1OC [PD153035] | decreased | – | decreased | not decreased | not decreased | decreased | decreased | –

— patent US20110027809A1, “METHOD FOR EVALUATION OF DEGREE OF MALIGNANCY OF TUMOR CELL” (priority 2008, published 2011)
